Where “and” joins values, the source holds several entries; their conditions need not be identical. Identical values can stand only once. Like-named read-outs stand apart in the source and are kept apart here.
Experiments:
[1] = test system: Mtb growth in J774 murine macrophage-like cells; experiment: microbe, parasite or virus in culture; type: cell-based, Mycobacterium tuberculosis; conditions: for NPI (Mtb growth in J774 cells), average: Fig 1F
Human plasma stability = type: in vitro ADME; conditions: 5-h incubation
Description: (§1) Assays examining mouse and human liver microsomal stability, kinetic aqueous solubility, mouse and human plasma protein binding and stability, and human cytochrome P450 inhibition characteristics of the compounds were run by BioDuro (San Diego, CA), using standard protocols as previously described [37]. hERG inhibition assays were also performed by BioDuro.

CYP2C9 = CYP2C9 (Homo sapiens, UniProt P11712); experiment: Human cytochrome P450 inhibition, 2C9; type: in vitro ADME; conditions: read-out: % inhibition of CYP 2C9
Description: as §1

CYP2C19 = CYP2C19 (Homo sapiens, UniProt P33261); experiment: Human cytochrome P450 inhibition, 2C19; type: in vitro ADME; conditions: read-out: % inhibition of CYP 2C19
Description: as §1

[2] = test system: macrophage phagosomal acidification in BMDMs; experiment: Phagosomal maturation assay, carboxyfluorescein beads (pH readout); type: cell-based, mouse; conditions: for 490 nm/450 nm, Average: average of 5 replicates
Description: Carboxyfluorescein (pH readout), DQ-BSA/Alexa Fluor 594 (AF594) (proteolysis readout), and BAC/AF594 (Cl^− readout) beads were generated essentially as previously described, except that 10,10′-Bis[3-carboxylpropyl]-9,9′-biacridinium dinitrate di-NHS ester (BAC-SE) was purchased from emp Biotech LLC. BMDMs were isolated from C57BL/6J mice (The Jackson Laboratory) and maintained as described above. A quantity of 2 × 10^5 macrophages/well were seeded into 96-well clear bottom black plates and utilized in assays 1 to 2 days post-seeding. […] Assay buffer consisted of PBS (pH 7.2), supplemented with 5% FBS, 5 mM dextrose, 1 mM CaCl2, 2.7 mM KCl, and 0.5 mM MgCl2 in the case of assays with the carboxyfluorescein or DQ-BSA/AF594 beads. For assays with the BAC/AF594 beads, assay buffer consisted of PBS (pH 7.2), supplemented with 5% FBS, 5 mM dextrose, 1 mM calcium acetate, 1.35 mM K2SO4, and 0.5 mM MgSO4 [9]. Sensor beads at approximately 2 to 5 beads/macrophage in appropriate assay buffer were finally added, with data acquisition on a Biotek Synergy H1 microplate reader with bottom read signal detection started within 2 to 3 minutes of bead addition. Excitation/emission wavelengths were 450 nm/520 nm and 490 nm/520 nm for carboxyfluorescein, 490 nm/520 nm for DQ-BSA, 365 nm/505 nm for BAC, and 590 nm/617 nm for AF594. Each experiment was run with a total of 3 to 5 replicate wells/condition, with temperature maintained at 37°C throughout the assay. Wells were read every 2 minutes for 2 hours for the carboxyfluorescein bead assays, every 2 minoutes for 4 hours for the DQ-BSA/AF594 bead assays, and every 1 minute for 2 hours for the BAC/AF594 bead assays. Analyses of the results were performed as previously described.

[3] = test system: CDC1551(rv2390c′::GFP) reporter Mtb strain; conditions: for Normalized % induction: Fig. 2C, DMSO = 100
Mtb = Mtb growth assay in cholesterol medium (OD600); conditions: for OD600: Fig. 2G
Description: Bacterial growth was tracked by measuring OD600 every 3 days for 12 days. […] Bacterial growth was tracked by measurement of OD600 every 3 days over 12 days.

Sequence of CYP2C19 (P33261 whole entry): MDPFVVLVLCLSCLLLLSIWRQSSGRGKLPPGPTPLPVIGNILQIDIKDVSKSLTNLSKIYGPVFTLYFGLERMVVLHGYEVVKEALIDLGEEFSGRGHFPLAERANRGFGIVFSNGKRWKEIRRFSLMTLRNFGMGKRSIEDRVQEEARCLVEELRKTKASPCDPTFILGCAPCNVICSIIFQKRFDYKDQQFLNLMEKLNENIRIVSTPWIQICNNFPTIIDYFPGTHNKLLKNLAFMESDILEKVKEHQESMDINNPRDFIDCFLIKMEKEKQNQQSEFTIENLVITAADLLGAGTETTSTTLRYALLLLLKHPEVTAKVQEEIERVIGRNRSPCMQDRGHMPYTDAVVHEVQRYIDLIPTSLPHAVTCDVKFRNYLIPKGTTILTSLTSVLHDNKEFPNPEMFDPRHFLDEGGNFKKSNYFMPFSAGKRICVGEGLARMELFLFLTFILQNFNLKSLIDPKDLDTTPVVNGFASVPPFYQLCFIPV
Sequence of CYP2C9 (P11712 whole entry): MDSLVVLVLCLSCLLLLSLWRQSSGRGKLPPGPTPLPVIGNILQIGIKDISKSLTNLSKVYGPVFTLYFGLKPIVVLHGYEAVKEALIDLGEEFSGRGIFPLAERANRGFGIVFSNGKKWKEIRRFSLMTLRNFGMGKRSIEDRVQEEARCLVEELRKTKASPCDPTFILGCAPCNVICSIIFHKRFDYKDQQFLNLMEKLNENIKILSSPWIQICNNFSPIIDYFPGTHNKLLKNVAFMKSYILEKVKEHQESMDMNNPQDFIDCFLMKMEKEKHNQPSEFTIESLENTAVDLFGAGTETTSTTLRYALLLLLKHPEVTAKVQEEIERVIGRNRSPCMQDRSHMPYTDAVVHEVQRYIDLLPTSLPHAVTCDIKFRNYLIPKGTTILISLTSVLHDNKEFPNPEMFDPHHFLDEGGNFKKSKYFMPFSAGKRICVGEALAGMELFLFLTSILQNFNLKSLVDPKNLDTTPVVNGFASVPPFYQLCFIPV

CCSc1ncc(CN2CCN(c3nc4ccccc4o3)CC2)cn1 [C6, 2-(4-((2-(ethylthio)pyrimidin-5-yl)methyl)piperazin-1-yl)benzo[d]oxazole]
NPI (Mtb growth in J774 cells), average ([1]; 0.078125 µM, 5 µM rifampicin = 100% inhibition): -7.09% | NPI (Mtb growth in J774 cells), average ([1]; 0.15625 µM): -2.13% | NPI (Mtb growth in J774 cells), average ([1]; 0.3125 µM): -0.93% | NPI (Mtb growth in J774 cells), average ([1]; 0.625 µM): -0.1% | NPI (Mtb growth in J774 cells), average ([1]; 1.25 µM): 17.45% | NPI (Mtb growth in J774 cells), average ([1]; 2.5 µM): 26.3% | NPI (Mtb growth in J774 cells), average ([1]; 5 µM): 38% | NPI (Mtb growth in J774 cells), average ([1]; 10 µM): 40.45% | NPI (Mtb growth in J774 cells), average ([1]; 20 µM): 53.6% | inhibition at 10 µM ([1]; Mycobacterium tuberculosis, J774, 144 h, read-out: J774 tertiary assay % inhibition compared to Rif at 10 µM compound): 40.5 ± 0.6% | inhibition at 20 µM ([1]; Mycobacterium tuberculosis, J774, 144 h, read-out: J774 tertiary assay % inhibition compared to Rif at 20 µM compound): 53.6 ± 2.7% | remaining at 5 h (Human plasma stability): 94.6% | inhibition at 10 µM (CYP2C9): 25.7% | inhibition at 10 µM (CYP2C19): 30.3% | Effect on macrophage phagosomal acidification ([2]; 10 μM, uninfected BMDMs): did not alter | 490 nm/450 nm, Average ([2]; time 0 minutes): 4.858 | 490 nm/450 nm, Average ([2]; time 2 minutes): 4.93 | 490 nm/450 nm, Average ([2]; time 4 minutes): 4.883 | 490 nm/450 nm, single replicates (Rep 1-5) ([2]; time 6 minutes): 4.9284 and 4.8623 and 4.895 and 4.851 and 4.867 | 490 nm/450 nm, Average ([2]; time 6 minutes): 4.881 | 490 nm/450 nm, single replicates (Rep 1-5) ([2]; time 8 minutes): 4.803 and 4.864 and 4.815 and 4.7957 and 4.8066 | 490 nm/450 nm, Average ([2]; time 8 minutes): 4.817 | 490 nm/450 nm, single replicates (Rep 1-5) ([2]; time 10 minutes): 4.783 and 4.786 and 4.81 and 4.727 and 4.764 | 490 nm/450 nm, Average ([2]; time 10 minutes): 4.774 | 490 nm/450 nm, single replicates (Rep 1-5) ([2]; time 12 minutes): 4.5604 and 4.6849 and 4.647 and 4.525 and 4.478 | 490 nm/450 nm, Average ([2]; time 12 minutes): 4.579 | 490 nm/450 nm, single replicates (Rep 1-5) ([2]; time 14 minutes): 4.45 and 4.492 and 4.497 and 4.303 and 4.234 | 490 nm/450 nm, Average ([2]; time 14 minutes): 4.395 | 490 nm/450 nm, single replicates (Rep 1-5) ([2]; time 16 minutes): 4.182 and 4.214 and 4.296 and 4.029 and 3.894 | 490 nm/450 nm, Average ([2]; time 16 minutes): 4.123 | 490 nm/450 nm, single replicates (Rep 1-5) ([2]; time 18 minutes): 3.914 and 3.991 and 4.055 and 3.796 and 3.692 | 490 nm/450 nm, Average ([2]; time 18 minutes): 3.89 | 490 nm/450 nm, single replicates (Rep 1-5) ([2]; time 20 minutes): 3.661 and 3.707 and 3.803 and 3.557 and 3.477 | 490 nm/450 nm, Average ([2]; time 20 minutes): 3.641 | 490 nm/450 nm, single replicates (Rep 1-5) ([2]; time 22 minutes): 3.443 and 3.455 and 3.57 and 3.319 and 3.292 | 490 nm/450 nm, Average ([2]; time 22 minutes): 3.416 | 490 nm/450 nm, single replicates (Rep 1-5) ([2]; time 24 minutes): 3.1867 and 3.242 and 3.389 and 3.087 and 3.065 | 490 nm/450 nm, Average ([2]; time 24 minutes): 3.194 | 490 nm/450 nm, single replicates (Rep 1-5) ([2]; time 26 minutes): 3.004 and 3.052 and 3.169 and 2.941 and 2.895 | 490 nm/450 nm, Average ([2]; time 26 minutes): 3.012 | 490 nm/450 nm, single replicates (Rep 1-5) ([2]; time 28 minutes): 2.852 and 2.904 and 3.023 and 2.803 and 2.7626 | 490 nm/450 nm, Average ([2]; time 28 minutes): 2.869 | 490 nm/450 nm, single replicates (Rep 1-5) ([2]; time 30 minutes): 2.719 and 2.762 and 2.859 and 2.651 and 2.679 | 490 nm/450 nm, Average ([2]; time 30 minutes): 2.734 | 490 nm/450 nm, single replicates (Rep 1-5) ([2]; time 32 minutes): 2.588 and 2.623 and 2.733 and 2.5744 and 2.581 | 490 nm/450 nm, Average ([2]; time 32 minutes): 2.62 | 490 nm/450 nm, single replicates (Rep 1-5) ([2]; time 34 minutes): 2.506 (2×) and 2.556 and 2.644 and 2.5507 | 490 nm/450 nm, Average ([2]; time 34 minutes): 2.552 | 490 nm/450 nm, single replicates (Rep 1-5) ([2]; time 36 minutes): 2.483 and 2.493 and 2.575 and 2.447 and 2.499 | 490 nm/450 nm, Average ([2]; time 36 minutes): 2.499 | 490 nm/450 nm, single replicates (Rep 1-5) ([2]; time 38 minutes): 2.411 and 2.458 and 2.4978 and 2.4066 and 2.452 | 490 nm/450 nm, Average ([2]; time 38 minutes): 2.445 | 490 nm/450 nm, single replicates (Rep 1-5) ([2]; time 40 minutes): 2.369 and 2.38 and 2.4986 and 2.406 and 2.442 | 490 nm/450 nm, Average ([2]; time 40 minutes): 2.419 | 490 nm/450 nm, single replicates (Rep 1-5) ([2]; time 42 minutes): 2.364 and 2.3783 and 2.434 and 2.346 and 2.427 | 490 nm/450 nm, Average ([2]; time 42 minutes): 2.3898 | 490 nm/450 nm, single replicates (Rep 1-5) ([2]; time 44 minutes): 2.319 and 2.337 and 2.405 and 2.355 and 2.4128 | 490 nm/450 nm, Average ([2]; time 44 minutes): 2.3655 | 490 nm/450 nm, Average ([2]; time 46 minutes): 2.351 | 490 nm/450 nm, Average ([2]; time 48 minutes): 2.35 | 490 nm/450 nm, Average ([2]; time 50 minutes): 2.351 | 490 nm/450 nm, Average ([2]; time 52 minutes): 2.342 | 490 nm/450 nm, Average ([2]; time 54 minutes): 2.342 | 490 nm/450 nm, Average ([2]; time 56 minutes): 2.334 | 490 nm/450 nm, Average ([2]; time 58 minutes): 2.337 | 490 nm/450 nm, Average ([2]; time 60 minutes): 2.3392 | 490 nm/450 nm, Average ([2]; time 62 minutes): 2.354 | 490 nm/450 nm, Average ([2]; time 64 minutes): 2.349 | 490 nm/450 nm, Average ([2]; time 66 minutes): 2.351 | 490 nm/450 nm, Average ([2]; time 68 minutes): 2.358 | 490 nm/450 nm, Average ([2]; time 70 minutes): 2.362 | 490 nm/450 nm, Average ([2]; time 72 minutes): 2.363 | 490 nm/450 nm, Average ([2]; time 74 minutes): 2.3781 | 490 nm/450 nm, Average ([2]; time 76 minutes): 2.3813 | 490 nm/450 nm, Average ([2]; time 78 minutes): 2.38 | 490 nm/450 nm, Average ([2]; time 80 minutes): 2.392 | 490 nm/450 nm, Average ([2]; time 82 minutes): 2.387 | 490 nm/450 nm, Average ([2]; time 84 minutes): 2.389 | 490 nm/450 nm, Average ([2]; time 86 minutes): 2.399 | 490 nm/450 nm, Average ([2]; time 88 minutes): 2.414 | 490 nm/450 nm, Average ([2]; time 90 minutes): 2.411 | 490 nm/450 nm, Average ([2]; time 92 minutes): 2.4274 | 490 nm/450 nm, Average ([2]; time 94 minutes): 2.4259 | 490 nm/450 nm, Average ([2]; time 96 minutes): 2.426 | 490 nm/450 nm, Average ([2]; time 98 minutes): 2.438 | 490 nm/450 nm, Average ([2]; time 100 minutes): 2.447 | 490 nm/450 nm, Average ([2]; time 102 minutes): 2.452 | 490 nm/450 nm, Average ([2]; time 104 minutes): 2.453 | 490 nm/450 nm, Average ([2]; time 106 minutes): 2.461 | 490 nm/450 nm, Average ([2]; time 108 minutes): 2.469 | 490 nm/450 nm, Average ([2]; time 110 minutes): 2.47 | 490 nm/450 nm, Average ([2]; time 112 minutes): 2.479 | 490 nm/450 nm, Average ([2]; time 114 minutes): 2.475 | 490 nm/450 nm, Average ([2]; time 116 minutes): 2.485 | 490 nm/450 nm, Average ([2]; time 118 minutes): 2.494 | 490 nm/450 nm, Average ([2]; time 120 minutes): 2.492 | Normalized % induction ([3]; average of 3 replicates): 141.019% | Normalized % induction ([3]; individual replicates): 121.516% and 141.974% and 159.566% | Ability to increase rv2390c′::GFP reporter signal in high [Cl−] ([3]; pH 7): increased rv2390c′::GFP reporter signal | Inhibition of Mtb growth in cholesterol media (Mtb; 10 μM, OD600 over 12 days): inhibited Mtb growth | OD600 (Mtb; day 3, average): 0.06 | OD600 (Mtb; day 3, individual replicates): 0.06 | OD600 (Mtb; day 6, average): 0.09333 | OD600 (Mtb; day 6, individual replicates): 0.1 (2×) and 0.08 | OD600 (Mtb; day 9, average): 0.12 | OD600 (Mtb; day 9, individual replicates): 0.12 and 0.1 and 0.14 | OD600 (Mtb; day 12, average): 0.1533 | OD600 (Mtb; day 12, individual replicates): 0.14 (2×) and 0.18

From publication PMC8351955, “Targeting Mycobacterium tuberculosis response to environmental cues for the development of effective antitubercular drugs” (PLoS Biology, 2021)
